Test: gradient 5% acetonitrile 3 min, to 50% in 2 min, to 85% in 15 min, held 3 min, 100 µL/min
Settings: column: Zorbax Extend-C18 2.1 x 50 mm; eluents: water / acetonitrile, 0.1% formic acid
In short: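 The system's dead and dwell volumes were 40 μL and 900 μL, with a Zorbax Extend-C18 column (2.1 × 50 mm, 1.8 μm) run at 100 μL/min in water and acetonitrile containing 0.1% formic acid each. Pure standards were analyzed in mixtures of ~100 molecules by HPLC–quadrupole time-of-flight mass spectrometry in positive and negative ionization mode. Retention time was assigned from computationally picked, manually inspected adduct peaks.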

Structure (SMILES) | RP-LC retention time
Cc1ccc(C(O)Cn2ccn3nc(-c4ccc(F)cc4)cc3c2=O)cc1 (stereo unspecified) | 966 s
CCOc1ccc(-n2cc(-c3nc(-c4ccccn4)no3)c3ccccc3c2=O)cc1 | 599 s
Cc1c(Cl)cccc1NC(=O)C1CCN(c2nc(C3CCC3)nc3csc(C)c23)CC1 | 1000 s
CSc1cccc(NC(=O)CCc2c(-c3ccccc3)nc3ccccn23)c1 | 691 s
O=C(Cc1c(Sc2ccccc2)[nH]c2ccccc12)N1CCN(c2ccccn2)CC1 | 679 s
COc1cc(CNC(=O)C2CCCN(c3nccc(C)n3)C2)cc(OC)c1OC (stereo unspecified) | 655 s
Cn1cc(C2=CCN(C(=O)NC3CCCC3)CC2)c2cccnc21 | 754 s
CCN1CCN(S(=O)(=O)c2ccc(Cl)c(-c3nnc(-c4ccccc4)o3)c2)CC1 | 702 s
CN(C)S(=O)(=O)c1ccc(-c2nnc(C(=O)NCc3cc(F)cc(F)c3)o2)cc1 | 878 s
CN1C(=O)c2cccnc2Sc2cc(NC(=O)c3ccccc3F)ccc21 | 758 s
Cc1cccc2c(=O)n(C)c(CCC(=O)NCc3ccc(Br)cc3)nc12 | 887 s
Cc1c(NC(=O)Nc2c(Cl)cccc2Cl)c(=O)n(-c2ccccc2)n1C | 751 s
O=C(O)CCC1CCN(c2cc(NC3CC3)ncn2)CC1 | 587 s
CCCn1c(=O)c(C)nc2cc(-c3noc(-c4ccsc4)n3)ccc21 | 1080 s
COc1cc(NC(=O)N2CCC(C)(C(=O)NCc3ccc(C)cc3)CC2)cc(OC)c1OC | 765 s
CCOCCOC1CCN(S(=O)(=O)Cc2ccccc2F)CC1 | 877 s
O=C(Cn1c(=O)n(-c2ccccc2)c2ncccc21)N1CCN(c2ccccn2)CC1 | 596 s
CCc1cccc(NC(=O)C2CCN(S(=O)(=O)c3ccc4c(c3)sc(=O)n4CC)CC2)c1 | 932 s
CCOC(=O)c1ccccc1NC(=O)CSc1ccc(-c2ccccn2)nn1 | 906 s
COC(=O)c1cccc(-c2nc(-c3cn(Cc4ccccc4)nn3)no2)c1 | 964 s
CC1(C(=O)NCc2ccccc2)Cn2cnc(C(=O)NCCc3ccccc3)c2C(=O)N1C1CC1 (stereo unspecified) | 754 s
CC(C)NC(=O)c1ccc(OCC2CCCN(C(=O)Cc3ccccc3Cl)C2)cc1 (stereo unspecified) | 899 s

Structure (SMILES) | RP-LC retention time
COc1ccc(OCC(=O)Nc2c(C(=O)N3CCN(c4ccccn4)CC3)oc3ccccc23)cc1 | 741 s
O=C(Nc1nc(-c2ccc(F)cc2F)cs1)c1ccccc1F | 1130 s
O=C(Nc1ccc(N2CCOCC2)cc1)C1CCCN(c2ncc(-c3cccc(F)c3)cn2)C1 (stereo unspecified) | 969 s
CNC(=O)N1CCC(OC2CCN(Cc3ccccc3)CC2)CC1 | 555 s
CCOCCCNC(=O)C1CCCN(c2nnc(C)c3c(C)n(-c4ccc(Cl)cc4)nc23)C1 (stereo unspecified) | 688 s
CCOC(=O)C1CCN(C(=O)C2(c3ccc(NS(C)(=O)=O)cc3)CCCCC2)CC1 | 894 s
O=C(NC12CC3CC(CC(C3)C1)C2)C1CCN(S(=O)(=O)c2cccs2)CC1 | 1070 s
Cn1nc(C2CCN(C(=O)NCc3ccccc3)CC2)c2c1CCOC2 | 668 s
CN(C)c1ccc(CCNC(=O)C(=O)NCc2ccc3c(c2)OCO3)cc1 | 577 s
COCCCNC(=O)CCc1cn(Cc2ccccc2F)c2ccccc12 | 909 s
Cc1cc(C)cc(NC(=O)N2CC(c3nc(C)no3)C3(CCOCC3)C2)c1 (stereo unspecified) | 706 s
CNC(=O)N1CCC(C2CCN(C(=O)CSC)C2)CC1 (stereo unspecified) | 608 s
O=c1cccnn1CCCNS(=O)(=O)c1ccc(F)c(C(F)(F)F)c1 | 741 s
COC(=O)c1cnc2nc(C)ccc2c1Nc1cc(OC)c(OC)c(OC)c1 | 643 s
CCN1CCCC1CNC(=O)c1nc(CCS(=O)(=O)c2ccc(OC)cc2)no1 (stereo unspecified) | 622 s
Cc1ccc(NC(=O)N2CCC(N3CCN(Cc4ccc(F)cc4)C(=O)C3=O)CC2)c(C)c1 | 751 s
Cc1ccc(-c2ncc(C(=O)N3CC=C(c4ccccc4)CC3)c(-c3ccncc3)n2)cc1 | 1110 s
O=C(NCc1ccccc1)c1c(O)c2cccnc2n(Cc2ccccc2)c1=O | 1370 s
CCc1ccccc1S(=O)(=O)N1CCC(C(=O)NCCc2csc(-c3cccs3)n2)CC1 | 981 s
CCCCCOC(=O)Nc1nc(=O)n(C2OC(C)C(O)C2O)cc1F (stereo unspecified) | 874 s
CCc1cccc(NC(=O)C2CCN(S(=O)(=O)c3ccc4c(c3)NC(=O)C(C)O4)CC2)c1 (stereo unspecified) | 838 s
Cc1nc(OCC(=O)NCc2ccc(F)cc2)c2ccccc2n1 | 705 s

Structure (SMILES) | RP-LC retention time
Cc1ccccc1NC(=O)N1CCC2(C1)C(=O)N(C)c1ccccc12 (stereo unspecified) | 772 s
COCCCNC(=O)C1c2ccccc2CCN1C(C)=O (stereo unspecified) | 641 s
COc1ccc(N2CCN(CCCNC(=O)C3CCCN(c4nccc(C)n4)C3)CC2)cc1 (stereo unspecified) | 603 s
O=C(Cc1nnc(-c2cccc(F)c2)o1)N1CCCCC1 | 630 s
CC(C)NC(=O)Cn1cnc2nc(N3CCC(C(=O)NC4CC4)CC3)sc2c1=O | 1060 s
CCSc1nnc(-c2nn(C)c3c2CN(S(=O)(=O)c2cccc(Cl)c2)CC3)n1CC | 989 s
COc1cccc(NC(=O)N2CCN(c3ccc(Nc4cc(C)ccn4)nn3)CC2)c1 | 588 s
N#Cc1nc(-c2cccs2)oc1N1CCN(C(=O)c2ccco2)CC1 | 789 s
C[C@H]1CN(C(=O)Cc2ccccc2F)C[C@@H]1c1nc(-c2cccnc2)no1 | 795 s
COC(=O)c1cc(C2CC2)nc2c1c(=O)n(Cc1cccc(Cl)c1)c(=O)n2C | 1160 s
CCCN(C)c1nccn2c(=O)n(CC(=O)Nc3ccc(F)c(Cl)c3)nc12 | 731 s
COc1ccc(-c2nnc(Cc3nc(-c4ccc(OC)c(F)c4)no3)o2)cc1 | 1040 s
O=C(NCCc1ccc(Cl)cc1)C1CCCN(c2ncnc3c2oc2ccccc23)C1 (stereo unspecified) | 855 s
COC(=O)c1ccc(NC(=O)Cn2c(=O)c3cc(C)nn3c3ncccc32)cc1 | 700 s
COc1ccc(S(=O)(=O)N2CCCC(C(=O)NC(C)(C)C)C2)cc1OC (stereo unspecified) | 707 s
Cc1cc(-c2nnc(-c3ccccc3)o2)c(C)n1CC(=O)Nc1ccccc1F | 952 s
CS(=O)(=O)N1CCN(C(=O)c2ccsc2)CC1 | 606 s
Cc1cc(N2CCN(C(=O)Nc3ccc(C)c(Cl)c3)CC2)nc(N2CCCC2)n1 | 747 s
CC(C)CC(NC(=O)CC1CCCCC1)C(=O)Nc1nc2ccccc2[nH]1 (stereo unspecified) | 803 s
Cc1ccccc1-c1noc(CN2C(=O)COc3ccccc32)n1 | 1040 s
COc1ccc(N2C(=O)CCC(C(=O)NCCCN3CCN(C)CC3)C2c2ccc(F)cc2)cc1 (stereo unspecified) | 526 s
COc1cc(NC(=O)N2CCN(c3cc(C)nc(N4CCCC4)n3)CC2)cc(OC)c1OC | 634 s
